Measurements from the supplement of paper PMC11208160.

Assay: recombinant barcode read abundance after kanamycin selection (control-corrected) (log10(CPM+1)); higher = more efficient recombination; sequences stand for … in AGTGCAGAGAAAATCGGCCAGTTTTCTCTGCCTGCAGTCCGCATGCCGT…AGATTTATGCAGCGGACTGCCTTTCTCCCAAAGTGATAAACCGGACAGTATCATGGACCGGTTTTCCCGGTAATCCGTATTTGCAAGGTTGGTTTCACT; site = the 11-nt target
How it was run: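 For this pooled screen, each oligo contained a promoter, a target, a barcode and the J23119-driven first 104 bases of the bridge RNA. Gibson cloning placed it into a vector supplying the remaining 73 bp and a T7-inducible recombinase, and the pool was co-electroporated into E. coli with a donor plasmid. Recombination efficiency is derived from barcode counts per million at recombinant junctions after averaging and control correction, and is expressed on a log scale as log10(CPM+1), with selection on chloramphenicol/ampicillin/kanamycin plus 0.1 mM IPTG against a chloramphenicol/ampicillin LB agar control.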
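Further: IS621 recombinase and bridge RNA in Escherichia coli cells.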

Sequence | recombinant barcode read abundance (log10)
GAGACGACTTGGGTTCTAACCTGTTGCCG (site GAGATGACTCC) | 0.0966
GAGAGATCTTGGGTTCTAACCTGTTGCCT (site GAGAAATCTAG) | 0.749
GAGAGATCTTGGGTTCTAACCTGTTGCCT (site GAGACATCTAG) | 0.157
GAGAGATCTTGGGTTCTAACCTGTTGCCT (site GAGAGATCTAG) | 1.46
GAGAGATCTTGGGTTCTAACCTGTTGCCT (site GAGATATCTAG) | 0.117
GAGAGCACTTGGGTTCTAACCTGTTGCCT (site AAGAGCACTAG) | 0.256
GAGAGCACTTGGGTTCTAACCTGTTGCCT (site CAGAGCACTAG) | 0.603
GAGAGCACTTGGGTTCTAACCTGTTGCCT (site GAGAGCACTAG) | 1.4
GAGAGCACTTGGGTTCTAACCTGTTGCCT (site TAGAGCACTAG) | 0.548
GAGAGGTCTTGGGTTCTAACCTGTTGCAT (site GAGAGGTCTAA) | 0.552
GAGAGGTCTTGGGTTCTAACCTGTTGCAT (site GAGAGGTCTAC) | 0.435
GAGAGGTCTTGGGTTCTAACCTGTTGCAT (site GAGAGGTCTAG) | 0.458
GAGAGGTCTTGGGTTCTAACCTGTTGCAT (site GAGAGGTCTAT) | 1.82
GAGAGGTCTTGGGTTCTAACCTGTTGCTT (site GAGAGGTCTAA) | 1.79
GAGAGGTCTTGGGTTCTAACCTGTTGCTT (site GAGAGGTCTAC) | 0.202
GAGAGGTCTTGGGTTCTAACCTGTTGCTT (site GAGAGGTCTAG) | 0.893
GAGAGGTCTTGGGTTCTAACCTGTTGCTT (site GAGAGGTCTAT) | 1.46
GAGCAACCTTGGGTTCTAACCTGTTGCTT (site ATAAGCTCTCG) | 0.25

Sequence | recombinant barcode read abundance (log10)
GAGCAACCTTGGGTTCTAACCTGTTGCTT (site GAGCAACCTAA) | 0.0979
GAGCAGGCTTGGGTTCTAACCTGTTGCTT (site AGTTCTCCTCG) | 0.196
GAGCAGGCTTGGGTTCTAACCTGTTGCTT (site GAGCAGGCTAA) | 0.661
GAGCCATCTTGGGTTCTAACCTGTTGCTT (site GAGCCATCTAA) | 0.524
GAGCCATCTTGGGTTCTAACCTGTTGCTT (site GAGTCGTCTAA) | 0.261
GAGCGCTCTTGGGTTCTAACCTGTTGCCG (site GAGCGCTCTCG) | 0.754
GAGCGCTCTTGGGTTCTAACCTGTTGCCG (site GAGCGTTCTAG) | 0.269
GAGGACTCTTGGGTTCTAACCTGTTGCCA (site GAGGACTCTAG) | 1.46
GAGGACTCTTGGGTTCTAACCTGTTGCCA (site GAGGACTCTCG) | 0.263
GAGGACTCTTGGGTTCTAACCTGTTGCCA (site GAGGACTCTGG) | 0.824
GAGGACTCTTGGGTTCTAACCTGTTGCCA (site GAGGACTCTTG) | 2.27
GAGGCTTCTTGGGTTCTAACCTGTTGCCT (site GAGGCTTCTAG) | 0.42
GAGGCTTCTTGGGTTCTAACCTGTTGCCT (site GCGGCTTCTAG) | 0.435
GAGGCTTCTTGGGTTCTAACCTGTTGCCT (site GGGGCTTCTAG) | 0.184
GAGGCTTCTTGGGTTCTAACCTGTTGCCT (site GTGGCTTCTAG) | 0.515
GAGGGAGCTTGGGTTCTAACCTGTTGCAT (site GAGAGAGCTAT) | 1.33
GAGGGAGCTTGGGTTCTAACCTGTTGCAT (site GAGCGAGCTAT) | 0.171
GAGGGAGCTTGGGTTCTAACCTGTTGCAT (site GAGGGAGCTAT) | 2.43
